Data set [1] concerns Medicago sativa (alfalfa) seeds. The experiment in a line: Alfalfa germination test. On the procedure: (§1) Independent 60 seed to 800 seed germination tests were conducted following standard seed testing protocols. Briefly, the seeds were placed on filter paper wettened with the active ingredient solution or nanoparticle suspension under investigation and germinated for 5-10 days. The infection of seeds with fungi and bacteria, and the germination rates were determined by counting the infested and germinated seeds, respectively. The germination speed was assessed by counting all fully emerged cotyledons. Blanks (water only) and dissolved silicon control (orthosilicic acid solution) were run in parallel to all experiments in 3-8 replicates. As a positive control, a solution of the commercially available fungicide tebuconazole was run in parallel. The SiO2-NP exposed plants were embedded in low viscosity epoxy resin for transmission electron microscopy imaging.

The subject of a further data set is fungi and bacteria. The experiment in a line: Alfalfa germination test: infection of seeds. The class given is in vivo, Medicago sativa. To be noted: positive control. On the procedure: as §1

Consider `CC(C)(C)C(O)(CCc1ccc(Cl)cc1)Cn1cncn1` (stereo not drawn) [tebuconazole], for which, in data set [1] (100 ppm), the cotyledon emergence result is on record as “detrimental effects” and the germination entry is “detrimental effects”. In data set [1] (4000 ppm), the “adverse effects on germinating seeds” value is recorded as “some adverse effects”. Besides, the “toxicity to the seed” value in data set [1] (same or comparable concentrations) was “exhibited toxicity to the seeds”. Also, in the data set on fungi and bacteria, the effect on fungi entry is recorded as “killing all fungi”.

In the case of orthosilicic acid, in data set [1] (germination and soil growth tests), the “overall effect on fungal infection, cotyledon emergence, seed vigor and biomass” value is recorded as “performed equally or worse compared to the nanoparticles”.

These data come from US12433292B2, “Method of production of controlled release silica nanoparticles for plant growth and/or defense enhancement” (ADOLPHE MERKLE INSTITUTE, UNIVERSITY OF FRIBOURG, priority 2019, dated 2025).
